Entries after “also recorded” stand apart in the source; their conditions may differ.
Key:
[1] = tested on: mutated KRAS oncogene; experiment: Digital PCR of KRAS in plasma; type: in vivo, rat; settings: for Mutated KRAS event no.: plasma
Experimental: (§1) The procedure was performed 2 times in the TCQ group, the first time with collagenase and after 2 minutes peritoneal washing with mitomycin C at the different concentrations to be tested was repeated. […] Blood was also collected from all the animals before sacrificing them, the blood was processed within the hour following its extraction to obtain plasma and to analyze, on one hand, the existence of the mutated KRAS oncogene (mutation in codon 12 of exon 1 expressed by DHD cells), and on the other hand the existence of collagenase traces or residues in blood after the peritoneal washes. A digital PCR was used for the KRAS oncogene localization study. For the collagenase trace study, the anonymized samples were sent to Lyposmol laboratories for the performance of specific anti-MMP-1 and anti-MMP-2 ELISAS.
To analyze the presence of mutated KRAS in the blood of the different groups by means of digital PCR, DNA was extracted from at least 2 ml of plasma/group by means of the QlAamp Circulating Nucleic Acid kit according to the manufacturer's data and the results were those listed in Table 4.

[2] = tested on: abdominal organs and peritoneum; experiment: Survival and necropsy of healthy rats after peritoneal washing (groups A, B)
From the text: During this phase, a series of survival experiments were established with various work groups and subgroups to learn about the co-adjuvant or enhancing role of collagenase in the treatment of peritoneal tumors with chemotherapeutic agents such as mitomycin C:
Each group initially consisted of 6 rats (2×3). In the initial design, 3 animals were sacrificed after 15 days and the rest were left until the conditions of the animals required them to be sacrificed (subcutaneous tumor growth >0.5 cm in diameter) or a maximum of 2 months.

[3] = tested on: peritoneal carcinomatosis (DHD cells); experiment: Survival and necropsy of rats with carcinomatosis after peritoneal washing (groups D, E, F); type: in vivo, rat; settings: for Observations (necropsy): group E, Mito 5 mg; for outcome of group E: mitomycin 5 mg/animal, large amount of analgesia
Experimental: as §1
Each group initially consisted of 6 rats (2×3).

## CO[C@@]12[C@H](COC(N)=O)C3=C(C(=O)C(C)=C(N)C3=O)N1C[C@@H]1N[C@@H]12 [Mitomycin C, mitomycin C]
[1]; group E (DHD + mitomycin C 5 mg/animal), only such group among the treatments
  mutated KRAS in the plasma, assessment: positive mutated KRAS in the plasma
[1]; group B (healthy rats, mitomycin)
  Mutated KRAS event no.: 0
[1]; group E (DHD + Mito 5 mg/animal)
  Mutated KRAS event no.: 524
[2]; 5 mg of mitomycin
  necropsies of group B1: many irritated and bloody adhesions, and thin organ walls and vessels
[2]; group B, high dose 5 mg/animal
  clinical condition: always lethargic and exhibit very little activity
[2]; group B, high dose 5 mg/animal, despite continuous analgesia
  survival time: ≤ 2 weeks
[2]; group B-1, healthy rats, 5 mg, 1 week, 2 animals, listed as Mito
  Observations (necropsy): Significant weight loss. Viscera affected
[2]; group B-1, healthy rats, 5 mg, 1 week, 2 animals, listed as mitomycin
  Observations (necropsy): all the abdominal organs are in a relaxed and retracted state (with kidneys that appear necrotic and liver that appears collapsed), the omentum can be ruptured upon contact, and the large intestine obstructed
[2]; group B-1, healthy rats, 5 mg, 5 days, 1 animal
  Observations (necropsy): intestinal puncture
[2]; group B-2, healthy rats, 0.1 mg, 1 week, 1 animal
  Observations (necropsy): Organs with thinning and bloody walls; also recorded: Many adhesions
[2]; group B-2, healthy rats, 0.1 mg, 2 months, 2 animals, listed as Mito
  Observations (necropsy): Greenish liquid in abdomen, peritonitis; also recorded: high degree of adhesions
[2]; group B-2, healthy rats, 0.1 mg, 2 months, 2 animals, listed as mitomycin
  Observations (necropsy): the intestine and an omentum are hematic
[2]; group B-2, healthy rats, 0.1 mg, 24 h, 2 animals
  Observations (necropsy): Evisceration
[3]; 1 week, 1 animal
  Observations (necropsy): Endpoint criterion
[3]; 2 weeks, 2 animals
  Observations (necropsy): Endpoint criterion
[3]; 72 h, 3 animals
  Observations (necropsy): Endpoint criterion
[3]
  outcome of group E: all the animals had to be sacrificed due to endpoint criterion
[3]; listed as mitomycin
  outcome of group E: Half of the animals were found dead the first night after surgery
